The text below walks through data of US20140271667A1, “Methods and Compositions for Neoadjuvant Therapy” (The Wistar Institute of Anatomy and Biology, priority 2013, published 2014).

Series [1] relates to PC3 cells. Nature of the series: Transwell cell migration. The class given is cell-based, human. The conditions noted are these: Gamitrinib 5 μM, 17-AAG 5 μM, CCCP 12.5 μM, 2-DG 25 mM, rapamycin 0.1 μM, 6 h. As to the method:
(§1) Various tumor cell types were treated as indicated in each experiment, suspended in 0.1% BSA/DMEM and seeded (1.6−3.2×10^3 cells/mm2, depending on the cell type) in the upper compartment of […] pore diameter BD transwells (BD). NIH3T3 conditioned medium was placed in the lower compartment as a chemoattractant. After 6-18 h incubations at 37° C., the transwell membranes were recovered and cells on the upper side (non-migratory) were wiped off the surface. Cells on the lower side of the membrane were fixed in methanol, rinsed in water and mounted on glass slides with Vectashield medium containing DAPI (Vector Laboratories). Migrated cells on each membrane were counted by fluorescence microscopy in 5 different fields. For cell invasion assays, transwell membranes were coated with Matrigel and processed as described above.

Series [2] has as its system PC3 cells. In words: Matrigel-coated transwell cell invasion. In kind it is cell-based, human. The conditions noted are these: Gamitrinib 5 μM, 17-AAG 5 μM, CCCP 12.5 μM, 2-DG 25 mM, 16 h. As to the method: as §1
The subject of series [3] is PC3 cells. In words: Cell proliferation by direct cell counting. In kind it is cell-based, human. Particulars: vs vehicle, Gamitrinib 5 μM, CCCP 12.5 μM, 2-DG 25 mM. As to the method: (§2) Tumor cells were plated onto 96-well plates at 3.7×10^3/well and treated with vehicle or Gamitrinib (5 μM). After 24 h, cell viability was assessed with a 3 (4,5-dimethyl-thyazoyl-2-yl)2,5 diphenyltetrazolium bromide (MTT) colorimetric assay (24), or, alternatively, by Trypan blue exclusion and light microscopy. Data were background-subtracted relative to vehicle-treated cultures. In some experiments, tumor cell proliferation was assessed by direct cell counting and light microscopy.

In series [4] the test system is PC3 cells. In words: Cell death by Trypan blue exclusion. In kind it is cell-based. Particulars: vs vehicle, Gamitrinib 5 μM, CCCP 12.5 μM, 2-DG 25 mM. Here is the method: as §2
Series [5] has as its system AMPK. In words: Western blotting, AMPK and ACC phosphorylation. The class given is cell-based, human. Particulars: PC3; Gamitrinib 5 μM time course, metformin 5 mM 6 h, 17-AAG 5 μM time course. Here is the method:
(§3) Protein lysates were prepared in RIPA buffer containing 150 mM NaCl, 1.0% Triton X-100, 0.5% sodium deoxycholate, 0.1% SDS, 50 mM Tris, pH 8.0, in the presence of EDTA-free protease inhibitor cocktail (Roche) and phosphatase inhibitor cocktail 2 and 3 (Sigma Aldrich). Equal amounts of protein lysates were separated by SDS gel electrophoresis, transferred to PVDF membranes and incubated with primary antibodies of various specificities. Protein bands were detected by chemiluminescence, as described (21).
(In general: Immunoblotting shows a protein as a band on a membrane.)

For series [6], the system named is ULK1. Nature of the series: Western blotting, ULK1 phosphorylation and level. In kind it is cell-based, human. The conditions noted are these: for ULK1 phosphorylation on Ser555: Gamitrinib 5 μM (within 1-2 h); for ULK1 phosphorylation on Ser555 / ULK1 phosphorylation on Ser757: metformin 5 mM 6 h, 17-AAG 5 μM; for ULK1 phosphorylation on Ser757: Gamitrinib 5 μM. As to the method:
as §3

The subject of series [7] is Raptor. In words: Western blotting, Raptor phosphorylation. The class given is cell-based, human. The conditions noted are these: PC3; Gamitrinib 5 μM, metformin 5 mM 6 h, 17-AAG 5 μM. Here is the method: as §3
Series [8] concerns Focal Adhesion Kinase (FAK). Nature of the series: Western blotting, FAK phosphorylation. The class given is cell-based, human. Particulars: tumor cells (PC3); Gamitrinib 5 μM, CCCP 12.5 μM, rapamycin 0.1 μM. As to the method: as §3
Series [9] relates to 4EBP1. In words: Western blotting, 4EBP1 phosphorylation. The class given is cell-based, human. The conditions noted are these: PC3; rapamycin 0.1 μM. Here is the method: as §3

Turning to `O=CC[C@@H](O)[C@H](O)[C@H](O)CO` [2-DG, 2-deoxy-D-glucose], the tumor cell migration entry in series [1] is on record as “suppressed tumor cell migration”. Also, the tumor cell invasion result in series [2] is “suppressed”. In addition, in series [3], the tumor cell proliferation entry is on record as “did not affect cell proliferation”. The “cell death by Trypan blue exclusion” value in series [4] is “did not affect”.

With `C=CCNC1=C2C[C@@H](C)C[C@H](OC)[C@H](O)[C@@H](C)/C=C(\C)[C@H](OC(N)=O)[C@@H](OC)/C=C\C=C(/C)C(=O)NC(=CC1=O)C2=O` [17-AAG, 17-allylamino demethoxygeldanamycin], the tumor cell migration result in series [1] is on record as “did not affect tumor cell migration or invasion”. The tumor cell invasion entry in series [2] was “did not affect tumor cell migration or invasion”. Besides, the “AMPK and ACC phosphorylation” value in [5] was “did not affect AMPK or ACC phosphorylation”. Besides, the “ULK1 level after longer exposure” value in series [6] (24-h exposure of tumor cells, data not shown) was “caused ULK1 degradation”. In addition, in series [6] (PC3), the “ULK1 phosphorylation on Ser555” value is “equally reduced” and the “ULK1 phosphorylation on Ser757” value was “equally reduced”. The “total level of ULK1” value in series [6] (PC3, time points of the Western blot experiment) is “not affected”. The “Raptor phosphorylation on Ser792” value in series [7] is reported as “remained unphosphorylated”.

Turning to `N#CC(C#N)=NNc1cccc(Cl)c1` [CCCP, carbonyl cyanide 3-chlorophenylhydrazone], in series [1], the tumor cell migration result is on record as “suppressed tumor cell migration”. Besides, the tumor cell invasion result in series [2] was “suppressed”. The tumor cell proliferation entry in series [3] was “did not affect cell proliferation”. Further, the “FAK phosphorylation on Tyr397 and Tyr925” value in series [8] is given as “abolished FAK phosphorylation”. Also, the “cell death by Trypan blue exclusion” value in series [4] is given as “did not affect”.

For the molecule `CN(C)C(=N)N=C(N)N` [metformin], the “AMPK and ACC phosphorylation” value in series [5] was “activation of AMPK and ACC”. Further, in series [6] (PC3), the “ULK1 phosphorylation on Ser555” value is “increased ULK1 phosphorylation on Ser555” and the “ULK1 phosphorylation on Ser757” value is reported as “decreased phosphorylation of ULK1 on Ser757”. Further, the “Raptor phosphorylation on Ser792” value in series [7] is given as “phosphorylation of Raptor on Ser792”.

On to `CO[C@H]1C[C@@H]2CC[C@@H](C)[C@@](O)(O2)C(=O)C(=O)N2CCCC[C@H]2C(=O)O[C@H]([C@H](C)C[C@@H]2CC[C@@H](O)[C@H](OC)C2)CC(=O)[C@H](C)/C=C(\C)[C@@H](O)[C@@H](OC)C(=O)[C@H](C)C[C@H](C)/C=C/C=C/C=C/1C` [rapamycin, Rapamycin], for which, in series [1], the tumor cell migration entry is “no effect”. Besides, the “FAK phosphorylation on Tyr397 and Tyr925” value in series [8] is “no effect”. Also, the 4EBP1 phosphorylation entry in series [9] is on record as “suppressed 4EBP1 phosphorylation”.
